In one assay the test system is AkAS. In kind it is biochemical. The note with it: 30 °C.
The subject of another assay is T1, SaAS.
T1 construct: pASK-IBA5plus (Strep-tag), E. coli TOP10; source organism not spelt out in this text
Briefly: 4-nitrophenolate release at […] nm. The format is biochemical. The note with it: 30 °C; Bis-Tris propane or SID buffer.

Counter-ions that a name gives are not always drawn.

As to `O=[N+]([O-])c1ccc(OP(=O)(O)O)cc1` [compound 1, phosphate monoester 1], in the assay on AkAS, the Michaelis constant (Km) came to 17 mM.
For `O=[N+]([O-])c1ccc(OS(=O)(=O)O)cc1` [compound 4, sulfate monoester 4], in the assay on SaAS, the Km is 0.24 mM.

The record behind these values is publication PMC5488252, “Specificity Effects of Amino Acid Substitutions in Promiscuous Hydrolases: Context‐Dependence of Catalytic Residue Contributions to Local Fitness Landscapes in Nearby Sequence Space” (Chembiochem, 2017).
